Results published in patent US11414398B2, “Selective organic cation transporters inhibitors for the treatment of depressive disorders” (priority 2017, dated 2022).

Legend:
[1] = tested on: corticosterone-induced depression model; assay: Elevated O-maze test, corticosterone-induced depression; format: in vivo, mice; details: after 21 days; i.p. daily: I-1 0.1 mg/kg/day, fluoxetine 15 mg/kg/day or both
Experimental: Corticosterone-induced depression. […] The experimental scheme is represented on FIG. 1A. Elevated O-maze test. The elevated O-maze consisted of an annular runway positioned 40 cm above the floor and divided into two opposing 90° closed sectors and two 90° open sectors. The mice were individually placed in the closed sector and their behavior recorded over a 5-min period. The time spent in each sector and the number of sector entries (a sector entry was defined as all four of the paws being placed in a sector) were determined by video tracking (Viewpoint, Lyon, France) (FIGS. 1D and 1E).

[2] = Effect on weight, corticosterone-induced depression; format: in vivo, mice; details: weight measured daily; I-1 0.1 mg/kg/day, fluoxetine 15 mg/kg/day or both, i.p.
Experimental: Corticosterone-induced depression. […] The experimental scheme is represented on FIG. 1A. Effect on weight. The weight of tested mice was measured daily in the morning (FIG. 2D).

[3] = tested on: autophagy and proteasome pathways in the brain; assay: Toxicity: cell death pathways in the brain, Western blots; details: quantitative Western blot, prefrontal cortex and hippocampus, corticosterone model
Experimental: (§1) Corticosterone-induced depression. To induce a chronic depression-like state, individually housed mice were administered corticosterone ([…]; Sigma-Aldrich) dissolved in 0.45% (wt/vol) hydroxypropyl-b-cyclodextrin (Sigma-Aldrich) as in (Bacq et al., Mol. Psychiatry, 2012, 17, 926-939). […] The mice were tested successively for coat sate, sucrose consumption, elevated O-maze, object location test and social interaction, before antidepressant treatment, and after 10 days and 3 weeks of treatment. The experimental scheme is represented on FIG. 1A.
Cell death pathways in the brain—Western blots. […] Samples were homogenized by sonication in 2 vol of ice-cold phosphate-buffered saline containing 1% Triton X-100, protease inhibitors (Complete Protease Inhibitor Cocktail, Roche Diagnostics, Basel, Switzerland) and phosphatase inhibitors (Phosphatase Inhibitor Cocktail 3; Sigma-Aldrich). Protein concentrations were determined by Bradford's method. Proteins samples (15 μg) suspended in NuPage LDS sample buffer (Invitrogen, Carlsbad, Calif., USA) were separated by Bis-Tris sodium dodecyl sulfate polyacrylamide gel electrophoresis (10% gels) and transferred onto nitrocellulose membranes (Invitrogen). Transfer efficacy was controlled by Ponceau S staining. Unspecific binding sites were blocked in Tris-buffered saline containing 0.1% Tween-20 and 5% nonfat milk and membranes were immunoprobed with antibodies against β-actin ( 1/2500) and β-catenin ( 1/300) from Sigma-Aldrich or LC3B ( 1/5000) from Abcam. Membranes were incubated with infrared-labeled secondary antibodies (IRDye 700DX and IRDye 800CW; 1/5000; Rockland, Gilbertsvillle, Pa., USA). Immunoblotting was quantified with the Odyssey Infrared Imaging System and Application Software version 3.0 (LI-COR Biosciences, Lincoln, Nebr., USA).

[4] = blood after 3 weeks of treatment, corticosterone model; means ± SEM (n = 6)
Experimental: as §1
Blood parameter evaluation. Blood was collected in lithium heparin after the 3 weeks of treatment. Hemograms were performed with a Siemens ADVIAZ 120 apparatus. For biochemistry, blood was centrifuged at 2000 g for 10 min at +4° C. and supernatant was analyzed with a COBAS 6000 (Roche) apparatus.

[5] = tested on: corticosterone-induced depression model; assay: Social interaction test, corticosterone-induced depression; format: in vivo, mice; details: compared to corticosterone
Experimental: (§2) Corticosterone-induced depression. […] The experimental scheme is represented on FIG. 1A. Social interaction test. The social interaction test was performed in a white open-field (42×42 cm) containing an empty wire mesh cage (10×6.5 cm) located at an extremity of the field in a low luminosity environment (25 lux). Each test mouse was allowed to explore the openfield for two consecutive sessions of 2.5 min. During the second session, an unfamiliar mouse was introduced into the cage. Between the two sessions, the test mouse was placed back into its home cage for approximately one minute. The time spent by the test mouse in the interaction zone, defined as an 8-cm-wide region surrounding the mesh cage, was measured in both sessions by video tracking (Viewpoint, Lyon, France) (FIGS. 1G and 1I).

[6] = tested on: corticosterone-induced depression model; assay: Open-field test, corticosterone-induced depression; format: in vivo, mice; details: compared to corticosterone; I-1 0.1 mg/kg/day, fluoxetine 15 mg/kg/day or both, i.p.
Experimental: as §1
Open-field test. The open field consisted of a white Plexiglas field (100×100×30 cm) with the center brightly illuminated (500 lux). General locomotor activity in the center and periphery of the open field were scored for 9 min. The time and number of entries in the center zone (60×60 cm) were evaluated as an index of anxiety-related response (FIG. 2B).

[7] = tested on: social defeat model; assay: Social defeat model, social interaction test; format: in vivo, mice; details: after 3 weeks of treatment; fluoxetine 17 mg/kg, compound (I-1) 0.1 mg/kg as printed
Experimental: as §2, with “Social defeat model. For social defeat, 8-week-old C57Bl/6J mice were submitted to social defeat stress for 10 consecutive days as described (Berton et al., Science, 2006, 311(5762), 864-8).” for “Corticosterone-induced depression.”, “1H.” for “1A.”

[8] = tested on: corticosterone-induced depression model; assay: Coat state, corticosterone-induced depression; format: in vivo, mice; details: both time points; i.p. daily: I-1 0.1 mg/kg/day, fluoxetine 15 mg/kg/day or both
Experimental: Corticosterone-induced depression. […] The experimental scheme is represented on FIG. 1A. Coat state. The coat state of each animal was assessed weekly as a measure of motivation toward self-care. It was evaluated as the sum of the score of different parts of the body, ranging between 0 for a well-groomed coat and 1 for an unkempt coat for head, neck, dorsal/ventral coat, tail and forepaws/hindpaws (FIG. 1B).

[9] = tested on: corticosterone-induced depression model; assay: Sucrose preference test, corticosterone-induced depression; format: in vivo, mice; details: i.p. daily: I-1 0.1 mg/kg/day, fluoxetine 15 mg/kg/day or both
Experimental: Corticosterone-induced depression. […] The experimental scheme is represented on FIG. 1A. Sucrose preference test. Singled-house mice were first habituated for 48 h to drink water from two bottles.

[10] = tested on: α2-adrenoreceptors; details: cited from earlier work
[11] = after injection in rabbits; cited from earlier work
[12] = tested on: α1-adrenoreceptors; details: cited from earlier work
[13] = target: T1, OCT3 (Homo sapiens, UniProt O75751); details: for OCT3; cited from earlier work
T1 sequence (O75751 1-556): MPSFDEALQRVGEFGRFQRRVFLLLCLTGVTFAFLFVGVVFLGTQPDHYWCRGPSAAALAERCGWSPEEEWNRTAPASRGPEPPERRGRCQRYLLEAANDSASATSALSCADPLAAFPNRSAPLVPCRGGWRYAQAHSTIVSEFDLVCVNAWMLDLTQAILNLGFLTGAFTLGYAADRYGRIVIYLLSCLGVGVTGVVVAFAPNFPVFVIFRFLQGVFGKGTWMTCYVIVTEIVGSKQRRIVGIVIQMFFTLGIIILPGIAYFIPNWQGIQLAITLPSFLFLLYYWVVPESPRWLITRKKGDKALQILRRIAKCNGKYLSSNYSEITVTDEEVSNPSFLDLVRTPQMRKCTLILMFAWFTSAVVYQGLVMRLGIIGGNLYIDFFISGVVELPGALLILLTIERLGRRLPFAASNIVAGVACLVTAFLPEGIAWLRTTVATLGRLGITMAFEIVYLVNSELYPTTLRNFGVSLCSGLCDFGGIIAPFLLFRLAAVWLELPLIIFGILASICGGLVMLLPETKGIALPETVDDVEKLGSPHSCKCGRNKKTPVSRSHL

For `CNCCC(Oc1ccc(C(F)(F)F)cc1)c1ccccc1` (stereo not shown) [fluoxetine, reference compound], the “latency to enter the open zone of the elevated O-maze” value [1] was “decreased the latency to enter this zone”, the “time in the open zone of the elevated O-maze” value [1] was “increased the time in the open zone” and the effect on weight [2] was “no significant effect”. The LC3II/LC3I ratios [3] was “comparable LC3II/LC3I ratios”, the β-catenin levels [3] was “comparable” and the ALP [4] was 47.4 ± 6.2 U/L. The ALT [4] was 75.1 ± 12.4 U/L, the AST [4] was 584.2 ± 87.6 U/L and the Creatinine [4] was 0.5 ± 0.04 mg/dL. The Hematies [4] was 8.5 ± 0.3 T/L, the Leucocytes [4] was 2.99 ± 0.08 g/L and the Platelets [4] was 357 ± 57.2. The Total bilirubin [4] was 0.12 ± 0.01 mg/dL, the Urea [4] was 64.2 ± 4.1 mg/dL and the “interaction time in social interaction test” value ([5]; 11 days of treatment) was “significant effects on interaction time”. The “interaction time in social interaction test” value ([5]; 21 days of treatment) was “significant effects on interaction time”, the “locomotor activity at the periphery of the open field” value [6] was “significant effect” and the “reversal of social aversion (time in interaction zone with target)” value [7] was “reversed only by fluoxetine”. For the same compound, the coat state [8] was “improved coat state at both time points”, the sucrose preference ([9]; 11 days of treatment) was “but not fluoxetine alone, significantly increased sucrose preference at 11 days” and the sucrose preference ([9]; 21 days of treatment) was “significantly increased sucrose preference at 21 days”.

For `CC(C)N1/C(=C\c2cc[n+](C(C)C)c3ccccc23)C=Cc2ccccc21` [Compound D24, disprocynium 24], the “inhibition of α2-adrenoreceptors” value [10] is given as “inhibits”, the “hypotensive effects (blood pressure)” value [11] is given as “decreasing blood pressure markedly” and the “inhibition of α1-adrenoreceptors” value [12] is given as “inhibits”. For the same compound, the Ki [13] was 14 nM.
